This is an account of results in patent US9889150B2, “Agents for the prevention and/or treatment of central nervous system damage” (The University Of Liverpool, priority 2012, dated 2018).

The test system of assay [1] is OECs and astrocytes. To be noted: previous work; cited from earlier work.
The target in another assay is FGFR3 (Homo sapiens, UniProt P22607). The following applies: cited from earlier work.
For assay [2], the system named is normal human plasma. In words: APTT assay. The following applies: tested up to 100 ug/ml. It is filed as biochemical. As to the method: (§1) APTT and PT assays were performed using a Axis Shield Thrombotrack 1 instrument using normal human plasma, Pathrombin SL reagent and Thromborel S (all from Axis Shield) reagents according to manufacturers instructions.
(§2) For all assays, heparins and polysaccharides were tested up to 100 ug/ml.

Another assay deals with T1, Factor IIa (Homo sapiens, UniProt P00734+P01008).
T1 construct: Factor IIa (Sigma, 15 mU/ml final concentration); purchased Sigma (Factor IIa); American Diagnostica (antithrombin III)
In words: Factor IIa colorimetric substrate assay with antithrombin III. The following applies: tested up to 100 ug/ml. Type of assay: biochemical. As to the method: (§3) Factor Xa and Factor II activity was measured using a colorimetric substrate assay as previously described^17. Briefly, in a 96 well ELISA plate, antithrombin III (American Diagnostica, 30 mIU/ml final concentration) was incubated with heparin or polysaccharide fractions in 0.9% NaCl at 37° C. for 2 minutes. Factor IIa (Sigma, 15 mU/ml final concentration) or Factor Xa (Thermo Scientific, 15 mU/ml final concentration) was added and the samples incubated for a further 1 minute at 37° C. Factor Xa Chromogenic substrate (Sigma, 240 uM final concentration) was added to the samples and incubated for 10 minutes at 37° C. The reaction was stopped with glacial acetic acid (Sigma, 25% final concentration). Colour change of the substrate was measured at 405 nm.
as §2

Assay [3] deals with OECs and astrocytes. In words: OEC:astrocyte confrontation assay (boundary formation). Type of assay: cell-based, Sprague-Dawley rat. The following applies: 2 days of treatment. More on the design: key to graded score of boundary formation: mingling (−); partial boundary (+/−); complete boundary (++). The procedure:
All primary neural cultures were generated from Sprague-Dawley rat pups of either sex. As described previously^10,37, purified type 1 astrocytes were prepared by digesting cortices (dissected from 1-day old Sprague Dawley (SD) rats) in 1.33% (w/v) collagenase (Sigma-Aldrich, Gillingham, UK), seeding (˜2×10^7 cells per 75 cm^2 flask) and culturing the cells in poly-L-lysine (PLL, 13.3 μg/ml, Sigma-Aldrich, Gillingham, UK) coated 75 cm2 flasks for 10-12 days. The cells were maintained in DMEM (Invitrogen, Paisley, Scotland) supplemented with 10% (v/v) foetal bovine serum (FBS) (Sigma-Aldrich, Gillingham, UK) and L-glutamine (2 mM, Sigma-Aldrich, Gillingham, UK) (DMEM-FBS). Confluent flasks were shaken on a rotary platform overnight at 37° C. to remove contaminating oligodendrocyte precursor cells. The remaining cells were 85-95% type 1 astrocytes as identified by labelling for glial fibrillary acidic protein (GFAP), an astrocyte cell specific marker.
OECs were isolated from the olfactory bulb of 7 day old SD rat pups and purified using magnetic nanoparticles (STEMCELL Technologies, UK) pre-bound with the p75^NTR antibody (mouse IgG1, Abcam, Cambridge, UK)^30. The cells were grown in low glucose DMEM with 5% (v/v) FBS and 2 mM L-glutamine and further supplemented with DMEM-BS (Bottenstein, 1979), FGF2 (25 ng/ml, Peprotech, London UK), heregulin β-1 (50 ng/ml, R&D Systems, Oxon, UK), forskolin (5×10^-7 M Sigma-Aldrich, Gillingham, UK) and astrocyte conditioned media (ACM) (1:5, fresh serum-free media taken after incubation with a confluent astrocyte monolayer for 48 h)^18, 37.
Confrontation assays were performed as described by Wilby et al. (1999) and Lakatos et al. (2000) with some modifications^10,48. Briefly, 70 μl containing 10,000 OECs or SCs were seeded into one well of a silicon Ibidi culture insert on a PLL-coated glass coverslip (Ibidi GmbH, Munich, Germany). Into the opposing, parallel well, 10,000 astrocytes were seeded. Cells were allowed to attach for 1 h before careful removal of the insert followed by a wash with DMEM-FBS to remove unattached cells. Cultures were maintained in DMEM-FBS and allowed to grow towards each other over a period of 5-7 days, allowing time for cells to make contact and interact^10. In some experiments, modified heparins or blocking antibodies were added to the cultures after the cells had contacted each other. Cultures were then immunolabelled using anti-GFAP for astrocytes (1:500; anti-rabbit (Dako, Ely, UK)) and anti-p75NTR for OECs and SCs (1:1; IgG1; hybridoma supernatant^49. Fluorescent images were captured using an Olympus BX51 fluorescent microscope and Image-Pro software. Using Adobe Photoshop Elements 7.0, a 300 μm line was drawn along the interface between astrocytes and either OECs or SCs. The numbers of OECs or SCs crossing the cell:cell boundary were counted and averaged over five randomly chosen fields. Experiments were repeated at least three times.
Modified heparins were produced semisynthetically by chemical modification (selective desulfation) of heparin as described in Example 1. These structurally distinct, model “HS-mimetic” polysaccharides^50 are useful tools for investigating structure-activity relationships of HS^15-17,31. Heparins were added to confrontation assays at 10 μg/ml at the stage when cells made contact (day 0) and treatment was repeated on day 2. Cultures were fixed and stained as described above on day 3. […]
Purified OECs were seeded at a density of 5000 cells/100 μl into one chamber of an Ibidi culture insert (Ibidi GmbH, Munich, Germany) sealed onto a PLL coated coverslip in a well of a 24-well plate. Cells were cultured in defined OEC medium for 24 h, after which, the medium was replaced with low serum (2% (v/v) FBS) OEC medium containing 1 μM siRNA. siRNA sequences were obtained from Dharmacon/Thermo Scientific (Sulf 1: E-093746-00-0005; Sulf2: E-093673-00-0005; non-targeting: D-001910-01-05; Thermo Fisher Scientific Inc, IL, USA). […]

Assay [4] concerns the target T2, Factor Xa (Homo sapiens).
T2 construct: purchased Chromogenix
In words: Factor Xa colorimetric substrate assay with antithrombin III. Type of assay: biochemical. To be noted: tested up to 100 ug/ml. As to the method: as §3, §2

Assay [5] concerns normal human plasma. The assay can be described thus: PT assay. It is filed as biochemical. To be noted: tested up to 100 ug/ml. As to the method:
as §1, §2

For assay [6] the following is noted: Celsus Labs lot PH-42800; cited from earlier work.
For assay [7], the system named is T2, Factor Xa (Homo sapiens). The assay can be described thus: Anti-factor Xa activity against PIMH standard, Coatest Heparin test kit. It is filed as biochemical. To be noted: compared with standard heparin (HEP1). As to the method:
Anti Factor Xa activity can be measured against a PIMH standard of known activity (Sigma, UK) using a diagnostic grade Coatest Heparin test kit (Chromogenix, MA), adapted to a 96-well plate format, reading A405 (Polarstar plate reader (BMG LabTechnologies, U.K.))^17.
The anti-factor Xa activity was measured against a PIMH standard of known activity using a diagnostic grade Coatest Heparin test kit (Chromogenix, MA), adapted to a 96-well plate format, reading A405.

Several values for one entry are separate records, joined by “and”; a condition that tells them apart may be missing. Identical values can stand only once. Entries after “also recorded” stand apart in the source; their conditions may differ. Like-named read-outs stand apart in the source and are kept apart here.

T2 sequence (P01008 33-464): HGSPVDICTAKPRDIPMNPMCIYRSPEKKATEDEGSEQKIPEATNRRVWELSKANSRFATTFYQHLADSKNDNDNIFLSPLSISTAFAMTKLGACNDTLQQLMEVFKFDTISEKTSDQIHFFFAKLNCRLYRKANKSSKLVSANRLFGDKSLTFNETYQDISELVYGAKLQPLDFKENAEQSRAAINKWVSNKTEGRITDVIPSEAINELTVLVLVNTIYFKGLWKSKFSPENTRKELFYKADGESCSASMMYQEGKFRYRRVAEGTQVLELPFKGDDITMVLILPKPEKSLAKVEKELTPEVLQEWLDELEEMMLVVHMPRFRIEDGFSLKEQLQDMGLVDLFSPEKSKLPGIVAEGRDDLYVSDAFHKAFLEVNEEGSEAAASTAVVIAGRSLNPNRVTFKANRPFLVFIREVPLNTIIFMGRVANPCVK
Chain of FGFR3 (P22607 23-806, species assumed): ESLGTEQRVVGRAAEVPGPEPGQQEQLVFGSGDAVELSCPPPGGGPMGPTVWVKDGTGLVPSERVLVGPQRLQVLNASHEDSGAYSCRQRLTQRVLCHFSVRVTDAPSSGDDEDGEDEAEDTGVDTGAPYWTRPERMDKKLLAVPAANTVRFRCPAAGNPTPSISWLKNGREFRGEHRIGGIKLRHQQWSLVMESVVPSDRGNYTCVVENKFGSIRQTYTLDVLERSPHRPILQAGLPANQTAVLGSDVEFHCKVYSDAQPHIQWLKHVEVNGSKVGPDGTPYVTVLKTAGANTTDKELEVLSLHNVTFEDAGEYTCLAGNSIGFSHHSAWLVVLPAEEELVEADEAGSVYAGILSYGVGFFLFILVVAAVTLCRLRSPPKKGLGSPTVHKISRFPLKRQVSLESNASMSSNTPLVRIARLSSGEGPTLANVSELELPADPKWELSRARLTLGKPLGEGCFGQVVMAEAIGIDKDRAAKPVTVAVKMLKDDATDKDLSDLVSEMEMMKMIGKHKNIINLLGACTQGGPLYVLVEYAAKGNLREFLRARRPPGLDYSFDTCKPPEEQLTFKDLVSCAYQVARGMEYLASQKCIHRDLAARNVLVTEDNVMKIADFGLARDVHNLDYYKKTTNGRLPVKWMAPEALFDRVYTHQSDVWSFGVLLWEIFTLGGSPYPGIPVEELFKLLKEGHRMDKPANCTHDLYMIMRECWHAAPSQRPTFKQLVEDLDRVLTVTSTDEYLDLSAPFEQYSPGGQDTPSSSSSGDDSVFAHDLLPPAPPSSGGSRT

On to `Cc1c[nH]c(/C=C2\C(=O)Nc3ccccc32)c1CCC(=O)O` [SU5402], for which the “SCM-induced boundary formation in OEC/astrocyte cultures” value in the assay on OECs and astrocytes [1] was “disrupts SCM-induced boundary formation”. Further, on FGFR3, the “inhibition of FGFR3” value was “effectively inhibit FGFR3”.
Take Heparin [reference compound]: the “IC50 APTT” value in the assay on normal human plasma [2] was 1.2 µg/mL and 1.2461 µg/mL. Moreover, the “IC50 Factor IIa” value on Factor IIa was 1.0 µg/mL and 1.0326 µg/mL. The “boundary formation between OECs and astrocytes” value in the assay on OECs and astrocytes [1] is “induce a boundary between OECs and astrocytes”. For the same compound, the “graded score of boundary formation” value in the assay with OECs and astrocytes [3] (10 μg/ml) is “++”. Besides, the “IC50 Factor Xa” value on Factor Xa (Homo sapiens) [4] was 0.9 µg/mL and 0.9295 µg/mL. Moreover, in the assay with normal human plasma [5], the “IC50 PT” value was 41.4 µg/mL and 41.4005 µg/mL.
Consider PIMH [HEP1, reference compound], for which, in [6], the anticoagulant activity is reported as 201 IU/mg. For the same compound, the “boundary formation between OECs and astrocytes” value in the assay with OECs and astrocytes [3] (modified heparins 10 μg/ml) is “induced boundaries between OECs and astrocytes; also recorded: induced the strongest boundaries”. The “Anticoagulant activity (anti-Xa activity)” value with Factor Xa (Homo sapiens) [7] worked out at 100%.
